Assay results: ChEMBL document CHEMBL1146941, “Synthesis of pyrazinamide Mannich bases and its antitubercular properties” (2006)
In brackets after ≈: the same amount, converted by molar mass.

What was measured:
[1] = tested on: Mycobacterium tuberculosis; experiment: Antimycobacterial activity against Mycobacterium tuberculosis; assay type: functional
Vero [2] = experiment: Selectivity index (CC50/MIC90); assay type: functional
Vero [3] = experiment: Cytotoxicity against Vero cells by MTT assay; assay type: functional; settings: Chlorocebus sabaeus
[4] = tested on: Mycobacterium tuberculosis; experiment: Activity against Mycobacterium tuberculosis ATCC 35801 in lungs of CD1 mice at 100 mg/kg; assay type: functional, Lung
[5] = tested on: Mycobacterium tuberculosis; experiment: Activity against Mycobacterium tuberculosis ATCC 35801 in spleen of CD1 mice at 100 mg/kg; assay type: functional

SMILES	MIC90 [1] [µg/mL]	Selectivity index (Vero [2])	CC50 (Vero [3]) [µg/mL]	also measured
O=C(NCN1CCN(c2ccccn2)CC1)c1cnccn1	12.5 (≈ 41.9 µM)			
O=C(NCN1CCN(c2ccc(C(F)(F)F)cc2)CC1)c1cnccn1	0.78 (≈ 2.13 µM)	>80	> 62.5	
CN1CCN(CNC(=O)c2cnccn2)CC1	12.5 (≈ 53.1 µM)			Log10 cfu [4]: 6.02; Log10 cfu [5]: 7.18
O=C(NCN1CCN(Cc2ccccc2)CC1)c1cnccn1	6.25 (≈ 20.1 µM)			
O=C(NCN1CCN(c2cccc(Cl)c2)CC1)c1cnccn1	3.12 (≈ 9.4 µM)			
O=C(NCN1CCN(c2ccc(Cl)cc2)CC1)c1cnccn1	3.12 (≈ 9.4 µM)			
COc1ccc(N2CCN(CNC(=O)c3cnccn3)CC2)cc1	12.5 (≈ 38.2 µM)			
O=C(NCN1CCN(c2ccc([N+](=O)[O-])cc2)CC1)c1cnccn1	6.25 (≈ 18.3 µM)			
COc1cccc(N2CCN(CNC(=O)c3cnccn3)CC2)c1	12.5 (≈ 38.2 µM)			
O=C(NCN1CCN(c2ccccc2)CC1)c1cnccn1	6.25 (≈ 21 µM)			
CCn1cc(C(=O)O)c(=O)c2cc(F)c(N3CCN(CNC(=O)c4cnccn4)CC3)cc21	1.76 (≈ 3.87 µM)	>40	> 62.5	
O=C(NCN1CCN(c2cc3c(cc2F)c(=O)c(C(=O)O)cn3C2CC2)CC1)c1cnccn1	3.13 (≈ 6.71 µM)	>20	> 62.5	
CCn1cc(C(=O)O)c(=O)c2cc(F)c(N3CCN(CNC(=O)c4cnccn4)CC3)c(F)c21	0.78 (≈ 1.65 µM)	>80	> 62.5	
O=C(NCN1CCN(c2ncccn2)CC1)c1cnccn1	> 12.5			
COc1ccccc1N1CCN(CNC(=O)c2cnccn2)CC1	12.5 (≈ 38.2 µM)			
O=C(NCN1CCN(c2ccc(F)cc2)CC1)c1cnccn1	1.76 (≈ 5.58 µM)	>40	> 62.5	
COc1c(N2CCN(CNC(=O)c3cnccn3)C(C)C2)c(F)cc2c(=O)c(C(=O)O)cn(C3CC3)c12 (stereo unspecified)		>160	> 62.5	
NC(=O)c1cnccn1 [PYRAZINAMIDE]	12.5 (≈ 102 µM)			
